The record followed here is patent US6433165B1, “Chemokine receptor antagonists and methods of use therefor” (Millennium Pharmaceuticals, Inc., priority 1998, dated 2002).

The first assay addresses T1, RANTES / MIP-1α binding to THP-1 cell membranes (Homo sapiens, UniProt P32246).
T1 sequence (P32246 1-355): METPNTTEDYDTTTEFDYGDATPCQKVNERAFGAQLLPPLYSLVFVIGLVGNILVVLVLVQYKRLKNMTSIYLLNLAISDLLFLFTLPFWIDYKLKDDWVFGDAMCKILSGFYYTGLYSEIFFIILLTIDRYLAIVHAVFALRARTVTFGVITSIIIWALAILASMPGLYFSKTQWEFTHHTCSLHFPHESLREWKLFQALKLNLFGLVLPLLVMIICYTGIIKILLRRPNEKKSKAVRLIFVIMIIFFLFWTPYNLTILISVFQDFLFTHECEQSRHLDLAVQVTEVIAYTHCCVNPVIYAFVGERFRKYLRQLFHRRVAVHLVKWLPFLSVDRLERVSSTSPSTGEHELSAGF
Description: Receptor binding assay, 125I-RANTES or 125I-MIP-1α binding to THP-1 cell membranes.
Conditions: not given
As to the method:
Membranes were prepared from THP-1 cells (ATCC #TIB202). Cells were harvested by centrifugation, washed twice with PBS (phosphate-buffered saline), and the cell pellets were frozen at −70 to −85° C. […] This procedure results in cell lysis. The suspension was mixed well to resuspend all of the frozen cell pellet. Nuclei and cell debris were removed by centrifugation of 400×g for 10 minutes at 4° C. The supernatant was transferred to a fresh tube and the membrane fragments were collected by centrifugation at 25,000×g for 30 minutes at 4° C. The supernatant was aspirated and the pellet was resuspended in freezing buffer consisting of 10 mM HEPES pH 7.5, 300 mM sucrose, 1 μg/ml each aprotinin, leupeptin, and chymostatin, and 10 μg/ml PMSF (approximately 0.1 ml per each 10^8 cells). All clumps were resolved using a minihomogenizer, and the total protein concentration was determined using a protein assay kit (Bio-Rad, Hercules, Calif., cat #500-0002). The membrane solution was then aliquoted and frozen at −70 to −85° C. until needed. Binding Assays utilized the membranes described above. […] The binding reactions were terminated by harvesting the membranes by rapid filtration through glass fiber filters (GF/B or GF/C, Packard) which were presoaked in 0.3% polyethyleneimine. The filters were rinsed with approximately 600 μl of binding buffer containing 0.5 M NaCl, dried, and the amount of bound radioactivity was determined by scintillation counting in a Topcount beta-plate counter.
As for `N#CC1(CCCN2CCC(O)(c3ccc(Cl)cc3)CC2)c2ccccc2C[S+]([O-])c2ccccc21` (single isomer, unassigned) [Example 14, 4-(4-Chlorophenyl)-1-[3-(11-cyano-6,11-dihydro-5-oxodibenzo[b,e]thiepin-11-yl)propyl]piperidin-4-ol], the IC50 was under 1000 nM.
The molecule `N#CC1(CCCN2CCC(O)(c3ccc(Cl)cc3)CC2)c2ccccc2CCc2ccccc21` [Example 2, 4-(4-Chlorophenyl)-1-[3-(5-cyano-10,11-dihydro-5H-dibenzo[a,d]cycloheptene-5-yl)propyl]piperidin-4-ol] registered an IC50 of under 1000 nM.
In turn, `N#CC1(CCCN2CCC(O)(c3ccc(Cl)cc3)CC2)c2ccccc2CSc2ccccc21` (centres unmarked) [Example 10, 4-(4-Chlorophenyl)-1-[3-(11-cyano-6,11-dihydrodibenzo[b,e]thiepin-11-yl)propyl]piperidin-4-ol] had an IC50 of under 1000 nM.
`O=C(NCC1(CCCN2CCC(O)(c3ccc(Cl)cc3)CC2)c2ccccc2CSc2ccccc21)Oc1ccccc1` (centres unmarked) [Example 22, Phenyl N-[11-[3-(4-(4-chlorophenyl)-4-hydroxypiperidino)propyl]-6,11-dihydrodibenzo[b,e]thiepin-11-yl)methyl Carbamate] yielded an IC50 of under 1000 nM.
On the same count and under the same terms, the figure for `O=C(CCN1CCC(O)(c2ccc(Cl)cc2)CC1)C1c2ccccc2CCc2ccccc21` [Example 24, 4-(4-Chlorophenyl)-1-[3-(10,11-dihydro-5H-dibenzo[a,d]cycloheptene-5-yl)-3-propioyl]piperidin-4-ol] is under 1000 nM.

Still in this assay, the particulars now being: 125I-RANTES or 125I-MIP-1α as ligand; THP-1 cell membranes; 60 min at room temperature; read-out: IC50 (inhibitor concentration required for 50% inhibition of specific binding).
`N#CC1(CCCN2CCC(O)(c3ccc(Cl)cc3)CC2)c2ccccc2C=Cc2ccccc21` [Example 1, 4-(4-Chlorophenyl)1-[3-(5-cyano-5H-dibenzo[a,d]cycloheptene-5-yl)propyl]piperidin-4-ol]: the IC50 is under 1000 nM.
As to `N#CC1(CCCN2CCC(O)(c3ccc(Cl)cc3)CC2)c2ccccc2COc2ccccc21` (centres unmarked) [Example 3, 4-(4-Chlorophenyl)-1-[3-(11-cyano-6,11-dihydrodibenz[b,e]oxepin-11-yl)propyl]piperidin-4-ol], the IC50 was under 1000 nM.
Still for that read-out and setting: in the case of `N#CC1(CCCN2CCC(O)(c3ccc(F)cc3)CC2)c2ccccc2COc2ccccc21` (centres unmarked) [Example 4, 1-[3-(11-Cyano-6,11-dihydrodibenz[b,e]oxepin-11-yl)propyl]-4-(4-fluorophenyl)piperidin-4-ol] it was under 1000 nM; in that of `N#CC1(CCCN2CCC(O)(c3ccc(Cl)cc3)CC2)c2ccccc2COc2ccc(F)cc21` (centres unmarked) [Example 5, 4-(4-Chlorophenyl)-1-[3-(11-cyano-6,11-dihydro-2-fluorodibenz[b,e]oxepin-11-yl)propyl]piperidin-4-ol], under 1000 nM.
Still for that read-out and setting: in the case of `N#CC1(CCCN2CCC(O)(c3ccc(Cl)cc3)CC2)c2ccccc2COc2ccc(Br)cc21` (centres unmarked) [Example 6, 1-[3-(2-Bromo-11-cyano-6,11-dihydrodibenz[b,e]oxepin-11-yl)propyl]-4-(4-chlorophenyl)piperidin-4-ol] it was under 1000 nM; in that of `Cc1ccc2c(c1)C(C#N)(CCCN1CCC(O)(c3ccc(Cl)cc3)CC1)c1ccccc1CO2` (centres unmarked) [Example 7, 4-(4-Chlorophenyl)-1-[3-(11-cyano-6,11-dihydro-2-methyldibenz[b,e]oxepin-11-yl)propyl]piperidin-4-ol], under 1000 nM; in that of `N#CC1(CCCN2CCC(O)(c3ccccc3)CC2)c2ccccc2CSc2ccccc21` (centres unmarked) [Example 11, 1-[3-(11-Cyano-6,11-dihydrodibenzo[b,e]thiepin-11-yl)propyl]-4-phenylpiperidin-4-ol], under 100000 nM.
As to `N#CC1(CCCN2CCC(O)(c3ccc(Br)cc3)CC2)c2ccccc2CSc2ccccc21` (centres unmarked) [Example 12, 4-(4-Bromophenyl)-1-[3-(11-cyano-6,11-dihydrodibenzo[b,e]thiepin-11-yl)propyl]piperidin-4-ol], the IC50 was under 1000 nM.
Turning to `N#CC1(CCCN2CCC(O)(c3ccc(Cl)cc3)CC2)c2ccccc2CSc2ccc(Br)cc21` (centres unmarked) [Example 13, 1-[3-(2-Bromo-11-cyano-6,11-dihydrodibenzo[b,e]thiepin-11-yl)propyl]-4-(4-chlorophenyl)piperidin-4-ol], the IC50 is under 1000 nM.
Consider `N#CC1(CCCN2CCC(O)(c3ccc(Cl)cc3)CC2)c2ccccc2CS(=O)(=O)c2ccccc21` (centres unmarked) [Example 16, 4-(4-Chlorophenyl)-1-[3-(11-cyano-6,11-dihydro-5,5-dioxodibenzo[b,e]thiepin-11-yl)propyl]piperidin-4-ol], for which the IC50 was under 1000 nM.
For the molecule `OC1(c2ccc(Cl)cc2)CCN(CCCC2c3ccccc3CSc3ccccc32)CC1` (centres unmarked) [Example 17, 4-(4-Chlorophenyl)-1-[3-(6,11-dihydrodibenzo[b,e]thiepin-11-yl)propyl]piperidin-4-ol], the IC50 is under 1000 nM.
`OC1(c2ccc(Cl)cc2)CCN(CCCC2c3ccccc3CCc3ccccc32)CC1` [Example 18, 4-(4-Chlorophenyl)-1-[3-(10,11-dihydro-5H-dibenzo[a,d]cycloheptene-5-yl)propyl]piperidin-4-ol]: the IC50 was under 1000 nM.
For the molecule `OC1(c2ccc(Cl)cc2)CCN(CCCC2c3ccccc3COc3ccccc32)CC1` (centres unmarked) [Example 19, 4-(4-Chlorophenyl)-1-[3-(6,11-dihydrodibenz[b,e]oxepin-11-yl)propyl]piperidin-4-ol], the IC50 was under 1000 nM.
With `O=C(NCCCO)NCC1(CCCN2CCC(O)(c3ccc(Cl)cc3)CC2)c2ccccc2CSc2ccccc21` (centres unmarked) [Example 23, 1-[11-[3-(4-(4-chlorophenyl)-4-hydroxypiperidino)propyl]-6,11-dihydrodibenzo[b,e]thiepin-11-yl]methyl-8-(3-hydroxypropyl)urea], the IC50 is under 10000 nM.

The assay is the same for the next values; noted with them: read-out: IC50 (inhibitor concentration required for 50% inhibition of specific binding); 125I-RANTES or 125I-MIP-1α as ligand; THP-1 cell membranes; 60 min at room temperature.
Turning to `N#CC1(CCCN2CCC(O)(c3ccc(Cl)cc3)CC2)c2ccccc2C[S+]([O-])c2ccccc21` (single isomer, unassigned) [Example 15, 4-(4-Chlorophenyl)-1-[3-(11-cyano-6,11-dihydro-5-oxodibenzo[b,e]thiepin-11-yl)propyl]piperidin-4-ol], the IC50 is under 1000 nM.
